According to patent publication US10501495B2, “Antimicrobial surface” (The University of Birmingham, priority 2014, dated 2019):
In brackets after ≈: the same amount, converted by molar mass. Where a SMILES comes first, the peptide text is derived from it. Primed or numbered codes have the meaning given here. Where no end group is shown, it is not given here. Linker = not defined here; FITC′ = not defined here

How the values were obtained:
[1] = test system: E. coli; assay type: cell-based
Description: (§1) The antibacterial activity of various amino acid sequences was tested against S. aureus, P. aeruginosa and E. coli.

[2] = test system: P. aeruginosa; assay type: cell-based
Description: as §1

[3] = test system: S. aureus; assay type: cell-based
Description: as §1

[4] = Binder-surface adherence of FITC-labelled binder peptide, fluorescence microscopy; assay type: physicochemical; settings: hydroxyapatite disks and titanium squares, pH 7, room temperature, washed before imaging
Description: This work established that the binder peptides interact with the surfaces

[5] = Release study of FITC peptide from hydroxyapatite disk into PBS (fluorescence); assay type: physicochemical
Description: A release study was carried out to ascertain the strength of adherence of the DDDDDDD (SEQ ID NO: 15)-Linker-FITC peptide to the hydroxyapatite surface. Disks of hydroxyapatite were incubated in 1 mg/ml peptide solutions for 1 hour and then washed thoroughly with PBS. The disk was then placed into a cuvette and surrounded with PBS solution (2 ml). The fluorescence of the solution around the disk was measured to ascertain the rate of peptide diffusion from the disk into the surrounding solution.

[6] = Further release studies of linker-FITC peptides from surface under different temperatures and pH; assay type: physicochemical
Description: Further release studies were carried out to ascertain the strength of adherence of the peptides RKLPDA (SEQ ID NO: 12), RKLPDARKLPDA (SEQ ID NO: 13) and EEEEEEE (SEQ ID NO: 14) to the surface under different temperatures and pH. Each peptide comprised a linker-FITC sequence for fluorescence. Surfaces were coated with peptide as described for FIG. 1. The peptide-coated disks were incubated in PBS or in a balanced buffer at a set pH. Aliquots of the solution surrounding the surface were taken out at set time points and the fluorescence of the peptide in the solution monitored to establish the rate of peptide diffusion from the disk into the surrounding solution.

[7] = room temperature, balanced buffer pH 9 (FIG. 5)
[8] = room temperature, balanced pH 7 buffer (FIG. 4)

Compound	Minimum inhibitory concentration (MIC) E. coli [1]	Minimum inhibitory concentration (MIC) P. aeruginosa [2]	Minimum inhibitory concentration (MIC) S. aureus [3]	other results
PACIGERRY [PACIGERRY]	10000 µg/mL	10000 µg/mL	10000 µg/mL	
N=C(N)NCCC[C@H](NC(=O)[C@H](CCCNC(=N)N)NC(=O)[C@H](CCCNC(=N)N)NC(=O)[C@H](CCCNC(=N)N)NC(=O)[C@H](CCCNC(=N)N)NC(=O)[C@@H](N)CCCNC(=N)N)C(=O)O [RRRRRR]	2500 µg/mL (≈ 2.62 mM)	39 µg/mL (≈ 0.0408 mM)	5000 µg/mL (≈ 5.23 mM)	efficacy against P. aeruginosa (in words) [2]: surprisingly high efficacy
DDDDDDD (DDDDDDD-{Linker-FITC′}; not fully specified; reading uncertain)				adherence of FITC-labelled binder peptide to surfaces [4]: adhered well to the surfaces; rate of release from hydroxyapatite into surrounding solution ([5]; disk incubated in 1 mg/ml peptide 1 hour, PBS 2 ml): fairly slow rate; time up to which increases in fluorescence (release) were observed ([5]; hydroxyapatite disk in PBS): up to 10 hours
EEEEEEEE	none	none	none	
EEEEEEE (also: linker-FITC, site not given here)				release of peptide from surface ([6]; 4° C., pH 7 PBS (FIG. 3)): released; release of peptide from surface ([6]; 37° C., pH 7 PBS (FIG. 2)): released; release of peptide from surface [6, 7]: released; release of peptide from surface [6, 8]: released; release in comparison to RKLPDA and RKLPDARKLPDA ([6]; room temperature, pH 4 (FIG. 6)): Increased release
CC(C)C[C@H](NC(=O)CNC(=O)[C@H](CS)NC(=O)[C@@H](NC(=O)CN)[C@@H](C)O)C(=O)N1CCC[C@H]1C(=O)NCC(=O)N[C@H](C(=O)N[C@@H](CCCCN)C(=O)N[C@@H](CS)C(=O)N[C@@H](CS)C(=O)O)[C@@H](C)O [GTCGLPGTKCC] (H-GTCGLPGTKCC-OH; N-terminus and C-terminus assumed)	10000 µg/mL (≈ 9.62 mM)	5000 µg/mL (≈ 4.81 mM)	5000 µg/mL (≈ 4.81 mM)	
RRIYGRGYIRREEEEEEEE [RRIYGRGYIRREEEEEEEE]	5000 µg/mL	10000 µg/mL	5000 µg/mL	
RKLPDA (also: linker-FITC, site not given here)	none	none	none	release of peptide from surface [6, 7]: not released; release of peptide from surface [6, 8]: not released
GTCIYQRLNAF [GTCIYQRLNAF]	10000 µg/mL	10000 µg/mL	10000 µg/mL	
RRIYGRGYIRR [RRIYGRGYIRR]	1250 µg/mL	2500 µg/mL	2500 µg/mL	
RRIYGRGYIRRRKLPDA [RRIYGRGYIRRRKLPDA]	5000 µg/mL	10000 µg/mL	10000 µg/mL	
RKLPDARKLPDA (also: linker-FITC, site not given here)				release of peptide from surface [6, 7]: not released; release of peptide from surface [6, 8]: not released
RLYLRIGRR [RLYLRIGRR]	250 µg/mL	2000 µg/mL	500 µg/mL	
